Experimental data published in patent US8518930B2, “Therapeutic combination comprising a CDKS inhibitor and an antineoplastic agent” (Nerviano Medical Sciences S.r.l., priority 2008, dated 2013).
Where two headings read alike, the source gives them in different places.

Assays:
[1] = system: HCT-116 human colon carcinoma; experiment: In vivo antitumor efficacy in combination with 5-FU, subcutaneous xenograft; conditions: for T − C: time to reach 1 g
Procedure: Balb, Nu/Nu male mice, from Harlan (Italy), were maintained in cages with paper filter cover, food and bedding sterilized and water acidified. Fragments of HCT-116 human colon carcinoma were implanted subcutaneously in athymic mice.
(§1) The treatment started when tumors were palpable. Both compounds were prepared immediately before treatment.
5-FU was administered by intravenous route in a volume of 10 ml/kg at the dose of 50 mg/kg on days 1, 8. […] Toxicity was evaluated on the basis of body weigh reduction.

[2] = system: A2780 human ovarian carcinoma cells; experiment: In vitro cytotoxic activity of the combination with gemcitabine (cell proliferation, cellular ATP monitoring); assay type: cell-based; conditions: for IC50: Homo sapiens, single agent, A2780, compound of formula (I) 24 hours, gemcitabine 1 hour, counted 72 hours after first treatment
Procedure: (§2) Exponentially growing A2780 human ovarian carcinoma cells were seeded and incubated at 37° C. in a humidified 5% CO2 atmosphere. After 24 hours, scalar doses of the compound of formula (I) were added to the medium for 24 hours, cells were washed and gemcitabine added for 1 hour. Cells were then washed and counted 72 hours after the first treatment. Cell proliferation was determined by a cellular adenosine triphosphate monitoring system. Cell proliferation was compared to control cells. The concentration inhibiting cell proliferation by 50% (IC50) was calculated.
(§3) The combination indices (C.I.) were calculated using a computer program for multiple drug effect analysis based on the equation of Chou-Talalay (Adv Enzyme Regul 1984; 22:27-55) for mutually nonexclusive drugs, where a C.I. of <1 indicates a more than additive effect.

[3] = system: A2780 human ovarian carcinoma cells; experiment: In vitro cytotoxic activity of the combination with oxaliplatin (cell proliferation, cellular ATP monitoring); assay type: cell-based; conditions: for IC50: single agent, A2780, oxaliplatin 1 hour, compound of formula (I) 24 hours, counted 72 hours after first treatment
Procedure: as §2, with “of oxaliplatin” for “of the compound of formula (I)”, “for 1 hour,” for “for 24 hours,”, “and compound of formula (I)” for “and gemcitabine”, “for 24 hours.” for “for 1 hour.”
as §3

[4] = system: A2780 human ovarian carcinoma cells; experiment: In vitro cytotoxic activity of the combination with SN-38 (cell proliferation, cellular ATP monitoring); assay type: cell-based; conditions: for IC50: single agent, A2780, SN-38 1 hour, compound of formula (I) 24 hours, counted 72 hours after first treatment
Procedure: as §2, with “SN38 is the active metabolite of irinotecan, from which is obtained by hydrolysis. Exponentially” for “Exponentially”, “of SN-38” for “of the compound of formula (I)”, “for 1 hour,” for “for 24 hours,”, “and compound of formula (I)” for “and gemcitabine”, “for 24 hours.” for “for 1 hour.”
as §3

[5] = system: U87-MG human glioblastoma; conditions: for T − C: time to reach 1 g; for Toxicity: male, Balb Nu/Nu (athymic), mouse, in vivo, po, 7 days
Procedure: Balb, Nu/Nu male mice, from Harlan (Italy), were maintained in cages with paper filter cover, food and bedding sterilized and water acidified. Fragments of U87-MG human glioblastoma were implanted subcutaneously in athymic mice. […] The treatment with temozolomide started when tumors were palpable. Compounds were prepared immediately before treatment.
(§4) Temozolomide was administered orally in a volume of 10 ml/kg at the dose of 25 mg/kg for 5 consecutive days. […] Tumor growth and body weight were measured every 3 days. Tumor growth was assessed by caliper. The two diameters were recorded and the tumor weight was calculated according the following formula: length (mm)×width^2/2. The effect of the antitumor treatment was evaluated as the delay in the onset of an exponential growth of the tumor (see for references, Anticancer drugs 7:437-60,1996). This delay (T-C value) was defined as the difference of time (in days) required for the treatment group (T) and the control group (C) tumors to reach a predetermined size (1 g). Toxicity was evaluated on the basis of body weigh reduction.

[6] = system: N-592 human small cell lung cancer tumors; conditions: for T − C: time to reach 1 g; for Toxicity: male, Balb Nu/Nu (athymic), mouse, in vivo, po, 17 days
Procedure: Balb, Nu/Nu male mice, from Harlan (Italy), were maintained in cages with paper filter cover, food and bedding sterilized and water acidified. Fragments of N-592 human small cell lung cancer tumors were implanted subcutaneously in athymic mice.
as §1
as §4, with “Topotecan” for “Temozolomide”, “by intravenous route” for “orally”, “6” for “25”, “on days 1, 5, 9, 13, 17.” for “for 5 consecutive days.”, “references” for “references,”, “7:437-60, 1996).” for “7:437-60,1996).”

[7] = compound of formula (I) 20 mg/kg orally twice a day, days 1-7
[8] = compound of formula (I) 40 mg/kg orally twice a day, days 1-7
[9] = temozolomide 25 mg/kg orally, days 1-5

## O=c1[nH]cc(F)c(=O)[nH]1 [5-FU, 5-fluorouracil, reference compound]
[1]; 5-FU 50 mg/kg intravenous, days 1, 8
  T − C: 2.17 days

## Nc1ccn([C@@H]2O[C@H](CO)[C@@H](O)C2(F)F)c(=O)n1 [Gemcitabine, gemcitabine, reference compound]
[2]
  IC50: 364 nM

## O=C1[O][Pt]2([NH][C@@H]3CCCC[C@H]3[NH]2)[O]C1=O [Oxaliplatin, oxaliplatin, reference compound]
[3]
  IC50: 2470 nM

## CCc1c2c(nc3ccc(O)cc13)-c1cc3c(c(=O)n1C2)COC(=O)[C@]3(O)CC [SN-38, reference compound]
[4]
  IC50: 39 nM

## CNC(=O)c1nn(C)c2c1C(C)(C)Cc1cnc(Nc3ccc(N4CCN(C)CC4)cc3)nc1-2 [compound of formula (I), 8-[4-(4-methyl-piperazin-1-yl)-phenylamino]-1,4,4-trimethyl-4,5-dihydro-1H-pyrazolo[4,3-h]quinazoline-3-carboxylic acid methylamide]
[5]; [7]
  Tumor-free mice: 0/8
  T − C: 1.74 days
[5]; [8]
  Tumor-free mice: 0/8
  T − C: 7.14 days
[5]; compound of formula (I) combined with temozolomide, U87-MG xenograft
  combination effect: clear synergic effect
[5]; 20 mg/kg
  Toxicity: 0/8
[5]; 40 mg/kg
  Toxicity: 0/8
[4]; Homo sapiens
  IC50: 690 nM
[4]; compound of formula (I) combined with SN-38, human tumor cells
  combination effect: more than additive (i.e. synergic) effect
[1]; Compound of formula (I) 20 mg/kg orally twice a day, days 2-7 and 9-14
  T − C: 4.93 days
[1]; compound of formula (I) combined with 5-FU, HCT-116 xenograft
  combination effect: clear synergistic effect
[1]; male, Balb Nu/Nu (athymic), mouse, in vivo, po, 20 mg/kg
  Toxicity: 0/7
[6]; Compound of formula (I) 20 mg/kg orally twice a day, days 1-17
  T − C: 1.61 days
[6]; Compound of formula (I) 30 mg/kg orally twice a day, days 1-17
  T − C: 2.98 days
[6]; compound of formula (I) combined with topotecan, N-592 xenograft
  combination effect: clear synergistic effect
[6]; 20 mg/kg
  Toxicity: 0/7
[6]; 30 mg/kg
  Toxicity: 0/7
[3]; Homo sapiens
  IC50: 876 nM
[3]; compound of formula (I) combined with oxaliplatin, human tumor cells
  combination effect: more than additive (i.e. synergic) effect
[2]
  IC50: 419 nM
[2]; compound of formula (I) combined with gemcitabine, human tumor cells
  combination effect: more than additive (i.e. synergic) effect

## Cn1nnc2c(C(N)=O)ncn2c1=O [temozolomide, reference compound]
[5]; [9]
  Tumor-free mice: 1/8
  T − C: 30.88 days

## CC[C@@]1(O)C(=O)OCc2c1cc1n(c2=O)Cc2cc3c(CN(C)C)c(O)ccc3nc2-1 [topotecan, reference compound]
[6]; topotecan 6 mg/kg intravenous, days 1, 5, 9, 13, 17
  T − C: 5.64 days
